Test results taken from a melting point compilation (Tetko et al.).

melting point [°C]	Compound
244 to 246	O=C(O)c1cnc2scc(-c3ccccc3)n2c1=O
142 to 144	Cc1nn(-c2ccc(Br)cc2)c(C)c1C=O
89 to 91	Cc1cc(C(N)=S)ccc1F
86 to 88	CCOCc1ccc(CNC(=O)CCl)cc1
107 to 109	CCC1CSC(Nc2ccc(Cl)c(Cl)c2)=N1 (stereo not given)
101 to 103	O=C(O)C1COc2ccccc21 (stereo not given)
217 to 219	Nc1ncc(Cc2cccc(C(=O)O)c2)s1
261 to 263	Cc1ccc(-n2c(=O)c(N)c(C)n2C)cc1
249 to 251	NC(=O)c1cncc(O)c1
162 to 164	COc1ccc(-c2nn(-c3ccccc3)cc2C=CC(=O)O)cc1OC
283 to 285	CC(NCc1ccc(F)cc1)C(=O)O (stereo not given)
73 to 75	Cc1ccc(NC(=O)OCC(F)(F)F)s1
59 to 61	CCCC1CNCCN1 (stereo not given)
62 to 64	N#CCN1CCOCC1
179 to 181	O=C(O)c1sc(-c2ccccc2)nc1C(F)F
237 to 239	Nc1nc2cc(-c3ccccc3)cc(Cl)c2o1
163 to 165	Nc1cccc(Cn2[nH]c(=O)ccc2=O)c1
165 to 167	NS(=O)(=O)c1cc([N+](=O)[O-])cs1
150 to 152	O=C(O)c1ccc(-c2ccccc2OC(F)(F)F)cc1F
182 to 184	CSc1ccc(C(=O)O)cn1
226 to 230	O=C(O)c1cnco1
216 to 218	Cc1ccc(C)c(-c2n[nH]c(=O)c3ccccc23)c1
225 to 227	CC1Oc2ncccc2NC1=O (stereo not given)
248 to 250	Nc1nc(-c2ccc(Cl)cc2)no1
228 to 230	NS(=O)(=O)c1cc(Cl)c(F)c(C(=O)O)c1

melting point [°C]	Compound
70 to 72	COc1ccc2cc(C(C)C#N)ccc2c1 (stereo not given)
126 to 128	CC(Cl)C(=O)Nc1nc2ccc(F)cc2s1 (stereo not given)
77 to 79	Cc1nc(-c2ccccc2N)no1
204 to 206	O=C(O)c1ccc(-c2ccc3c(c2)OCCO3)s1
145 to 147	CC(=O)Nc1cc(S(=O)(=O)Cl)ccc1C
183 to 185	NS(=O)(=O)c1cccnc1Cl
81 to 83	O=C(O)C=CC1CCC=CO1 (stereo not given)
251 to 253	O=C1CS/C(=C/C(=O)c2ccco2)N1
67 to 69	OC1CCSc2ccccc21 (stereo not given)
143 to 145	O=[N+]([O-])c1ccc(N2CCOCC2)nc1
177 to 179	OCc1cn2cc(Cl)cc(Cl)c2n1
197 to 199	O=C(O)c1ccccc1N1CCCC1=O
68 to 70	O=[N+]([O-])c1ccc(NCC2CCCO2)c(F)c1 (stereo not given)
156 to 158	CCN(CC(=O)O)S(=O)(=O)c1cccnc1Cl
206 to 208	Nc1ccc(S(N)(=O)=O)cc1[N+](=O)[O-]
99 to 101	CC(C)(C)Oc1c(F)cc(N)cc1F
57 to 59	O=C(O)C1CCC2CCCCC2C1 (stereo not given)
119 to 121	CC(C)C(=O)Nc1cccc(N)c1
134 to 136	Cc1occc1-c1nnc(S)n1Cc1ccccc1
125 to 127	Cc1cc(Br)ccc1SCC(=O)O
255 to 257	O=C(CC(=O)C(F)(F)F)c1ccncc1
86 to 88	Cc1ccc(Sc2ccc(Cl)cc2N)c(C)c1
101 to 103	C=CCn1c(S)nnc1C1CCS(=O)(=O)C1 (stereo not given)
223 to 225	O=C(O)c1cccnc1Sc1ccc(Br)cc1
74 to 76	CCN(CC)C(=O)CCC(=O)O

melting point [°C]	Compound
55 to 57	O=S(=O)(Cl)c1ccc(OCC(F)(F)F)cc1
313 to 315	Cn1cnc2cc(C(=O)O)ccc21
29 to 31	O=C(CC(F)(F)F)c1ccc(F)cc1
148 to 150	CC(C)C(O)(C(=O)O)c1ccccc1 (stereo not given)
111 to 113	NC(CCN1CCN(Cc2ccccc2)CC1)=NO
97 to 99	O=C(O)CS(=O)(=O)CCCc1ccccc1
159 to 161	O=c1[nH]ccnc1Cl
69 to 71	CCOC(=O)c1cc(CC)sc1N
161 to 163	CCOC(=O)c1c[nH]cc1C(F)(F)F
69 to 71	O=C(Nc1ccc(Cl)cc1)OCC(F)(F)F
161 to 163	O=C(O)C1CCC(NC(=O)C2CCCC2)CC1 (stereo not given)
166 to 168	O=C(O)C=Cc1cc(Cl)ccc1OCc1ccc(F)cc1
61 to 63	CC1CNCC(C)N1C(=O)OC(C)(C)C (stereo not given)
134 to 136	NC(=O)NCc1cccc(F)c1
59 to 61	CCOC(=O)c1cc(-c2ccccc2)ccc1N
123 to 125	NC(=O)C1CCCC1N (stereo not given)
92 to 94	NNC(=O)C1CC1
29 to 31	COC(=O)CCCOc1ccccc1F
165 to 167	NC(=NO)c1ccc(OCc2cccnc2)cc1
82 to 84	COC(=O)c1ccc(Oc2cccnc2)cc1
182 to 184	Cc1cccc2c1C(=O)NCCN2
97 to 99	O=S(=O)(Cl)Cc1ccc2ccccc2c1
197 to 199	COC(=O)c1nc2ncc3c(n2n1)C(=O)OCC3
83 to 87	NC(CCl)=NO
80 to 82	NC(Cn1cccn1)=NO

melting point [°C]	Compound
59 to 61	O=Cc1ccc(Oc2cccc([N+](=O)[O-])c2)cc1
118 to 120	CN1CCN(C(=O)CC#N)CC1
299 to 301	Cn1c(=O)c2[nH]c(Br)nc2n(C)c1=O
147 to 149	COCCCN1C(=O)c2ccc(C(=O)O)cc2C1=O
88 to 90	O=C(O)C(=O)c1ccc(F)c(F)c1
197 to 199	Cc1cc(C)c2oc(N)nc2c1
170 to 172	Cc1ccccc1C1(C(=O)O)CCOCC1
70 to 72	CCOC(=O)c1cnn2c(C(=O)OCC)c(CCCO)cnc12
181 to 185	CC(C)(C)NS(=O)(=O)c1ccc(C(=O)O)cc1
250 to 252	CCCCn1c(N)c(NC2CCCC2)c(=O)[nH]c1=O
137 to 139	CCOc1cccc(C=CC(=O)O)c1OC1CCCCC1
144 to 146	Cc1ccc(NC(=O)c2ccccc2)cc1N
76 to 78	N#CC1COCCN1 (stereo not given)
67 to 69	Cc1nn(CCO)c(C)c1C=O
180 to 182	O=C(O)c1cc([N+](=O)[O-])cc(Cl)c1F
87 to 89	O=[N+]([O-])c1ccc(COc2ccccc2)cc1
141 to 143	O=C(O)CS(=O)Cc1ccc(Br)cc1 (stereo not given)
116 to 118	Cc1nc(CC(C)C)c(C(=O)O)s1
120 to 122	Nc1cc(-c2ccccc2I)no1
35 to 37	Cc1cc(S(=O)(=O)Cl)sc1Br
219 to 221	Cc1ccc(-n2nc(Br)cc2C(=O)O)cc1
64 to 66	NNC(=O)Cc1cccs1
155 to 157	CCc1cccc(C)c1Nc1nnc(S)s1
87 to 89	COc1ccc(-n2nc(N)cc2C)cc1
45 to 47	CC1(C)CCC(CC(=O)O)CC1

Compound	melting point [°C]
Cc1c(C(=O)O)cnn1CCOC1CCCCO1 (stereo not given)	139 to 141
CC(C)(C)c1ccc(C2(CN)CCCC2)cc1	62 to 64
Brc1ccc2ncnc(N3CCNCC3)c2c1	99 to 101
CN1CCN(c2ccc(N)c(C(F)(F)F)c2)CC1	87 to 89
O=C1NCCCC1Br (stereo not given)	49 to 51
